From paper PMC9658513, “Discovery of Compounds That Selectively Repress the Amyloidogenic Processing of the Amyloid Precursor Protein: Design, Synthesis and Pharmacological Evaluation of Diphenylpyrazoles” (International Journal of Molecular Sciences, 2022)

How the values were obtained:
Type in all cases: cell-based, human
[1] = test system: AICD (APP intracellular domain); test: AICD level by Western blotting in SY5Y-APP^WT cells; conditions: Homo sapiens, concentration increasing AICD 20-fold vs untreated control, read-out: AICD (C20)
Procedure: (§1) The final and selected intermediate compounds were evaluated for their ability to modulate APP processing in the SH-SY5Y human neuroblastoma cell line stably expressing the neuronal isoform of human wild-type APP^695 (SY5Y-APP^WT), a well-established model for the study of APP metabolism. APP carboxy-terminal fragments (αCTFs and AICD) levels were assessed by Western blotting (WB). The effect of the reference and test compounds on αCTFs and AICD is expressed as the intensity of corresponding WB bands. The concentration of compounds able to increase 20-times αCTFs and AICD (C20) when compared to the control condition was calculated. Selected compounds were also evaluated for their ability to modulate the secretion of soluble APP fragments (sAPPα and sAPPβ). Aβ1–x levels (Aβ1–40 and Aβ1–42) after treatment with the reference and tested compounds were measured in the cell media by ELISA (Table 1). […] Selected hit compounds were then further evaluated for their ability to decrease the level of N-truncated Aβ peptides (Aβx–38, Aβx–40, and Aβx–42).
(§2) The human neuroblastoma cell line SY5Y-APP^695WT was maintained in Dulbecco’s modified Eagle medium (DMEM, high glucose, pyruvate—GIBCO, Life Technologies, Carlsbad, CA, USA) supplemented with 10% fetal bovine serum, 2 mM L-glutamine, 1 mM non-essential amino acids and penicillin/streptomycin (GIBCO, Life Technologies, Carlsbad, CA, USA) at 37 °C in a 5% CO2 humidified incubator [36]. For compound treatment, a 10 mM stock solution was diluted in freshly supplemented DMEM medium to obtain the precise final concentration of the drug. Cells were plated at a density of 5 × 10^5 cells per well into 12-well plates and cultured with 1 mL supplemented DMEM cell medium for 24 h before compound exposure. The following day, the cell medium was replaced with fresh medium containing the compounds diluted at the indicated concentrations. Cells were treated for 24 h. At the end of the treatments, the cell medium was collected and kept at −80 °C until use, cells were rinsed once with PBS and extracted in 100 µL of Laemmli buffer (10 mM Tris, 20% glycerol, and 2% sodium dodecyl sulfate) using a cell-scraper. The cell lysate was further sonicated (30 pulses of 0.5 s, 60 Hz) for 5 min. Total protein concentration was determined using the Pierce BCA Protein Assay Kit (Thermo Scientific, Waltham, MA, USA) according to the manufacturer’s instructions. Samples were stored at −80 °C until analysis.
(§3) Cell protein lysates were prepared for Western blot analysis by diluting the sample with 1 volume of NuPAGE® lithium dodecyl sulfate (LDS) 2X sample buffer supplemented with 20% NuPAGE® sample reducing agents (Invitrogen). Samples were heated for 10 min at 100 °C. Ten µg of total proteins per well were loaded onto precast 4–12% Criterion XT Bis-Tris polyacrylamide gels (Bio-Rad) and electrophoresis was achieved after applying a tension of 150 V for 90 min using a Criterion electrophoresis cell with the NuPAGE® MOPS SDS running buffer (1X). Proteins were transferred to a nitrocellulose membrane of […] pore size (G&E Healthcare, Madison, WI, USA) using the Criterion blotting system and applying a tension of 100 V for 45 min. To resolve proteins of low molecular weights such as carboxy-terminal fragments of APP, 12% Criterion XT Bis-Tris polyacrylamide gels (Bio-Rad, Hercules, CA, USA) were used, and electrophoresis was performed for 70 min at 150 V in a NuPAGE® MES SDS running buffer (1X). Proteins were transferred to a nitrocellulose membrane of 0.2 µm pore size (G&E Healthcare, Madison, WI, USA) at 100 V for 40 min. Molecular weight calibration was achieved using molecular weight markers (Novex and Magic Marks, Life Technologies, Carlsbad, CA, USA). Protein transfer and quality were determined by a reversible Ponceau Red coloration (0.2% xylidine Ponceau Red and 3% trichloroacetic acid). […]

[2] = test system: αCTF (APP carboxy-terminal fragment); test: αCTF level by Western blotting in SY5Y-APP^WT cells; conditions: Homo sapiens; concentration increasing αCTF 20-fold vs untreated control; SY5Y-APP^WT cells; read-out: αCTF (C20)
Procedure: as §1, §2, §3

[3] = test system: Aβ1–42 peptide secretion; test: Aβ1–42 secretion in cell medium by ELISA; conditions: Homo sapiens; SY5Y-APP^WT cells, 24 h treatment; mean ± SD of at least three experiments in triplicate
Procedure: as §1, §2
(§4) Conditioned media of SY5Y-APP^695WT collected at the end of treatments were centrifuged at 1000× g for 5 min to eliminate cell debris.
(§5) Aβ1–40/Aβ1–42 peptides, Aβx–38/Aβx–40/Aβx–42, and sAPPα/sAPPβ concentrations in pg/mL were determined, respectively, using amyloid-beta 40 and 42 Human ELISA Kits (Invitrogen), the V-PLEX Plus Aβ Peptide Panel 1 (4G8) Kit (Meso Scale Diagnostics, MSD R©, Rockville, MD, USA), and the sAPPα/sAPPβ Multiplex Kit (Meso Scale Diagnostics, MSD R©, Rockville, MD, USA) according to the manufacturer’s instructions.

[4] = test system: Aβ1–40 peptide secretion; test: Aβ1–40 secretion in cell medium by ELISA; conditions: Homo sapiens; SY5Y-APP^WT cells, 24 h treatment; mean ± SD of at least three experiments in triplicate; read-out: Aβ1–40 IC50
Procedure: as §1, §2, §4, §5

[5] = in vitro; conditions: human
Procedure: Cytotoxicity was measured using 3-(4,5-dimethylthiazol-2-yl)-5-(3-carboxymethoxyphenyl)-2-(4-sulfophenyl)-2H-tetrazolium (MTS) tests. SY5Y-APP^695WT cells were plated in a 96-well plate at 3 × 10^4 cells per well and allowed to attach for 24 h. Cells were then incubated for 72 h with 100 µL of DMEM with 10% SVF containing (or not) the defined concentration of drugs. Cytotoxicity was determined by using the colorimetric MTS assay (Cell Titer 96® Aqueous One Solution Cell Proliferation Assay-MTS Promega, Madison, WI, USA) according to the manufacturer’s instructions. Absorbance was read at 490 nm.

| IC50 [3] | IC50 [4] | Compound | EC (20-fold increase) [1] | EC (20-fold increase) [2] | CC50 at 72 h [5] |
| --- | --- | --- | --- | --- | --- |
| 6.5 ± 1.1 µM | 6.2 ± 0.6 µM | CN(C)CCCc1ccc(-c2nn(-c3ccc(CO)cc3)cc2CN(C)C)cc1 [Compound 16, [4-[4-(Dimethylaminomethyl)-3-[4-[3-(dimethylamino)propyl]phenyl] Pyrazol-1-yl]phenyl]methanol] | 4.6 µM | 3.6 µM | 23 µM |
| 5.4 ± 2.4 µM | 4.8 ± 1.2 µM | CN(C)CCCc1ccc(-c2nn(-c3ccc(CO)cc3)cc2CCCN(C)C)cc1 [Compound 17, [4-[4-[3-(Dimethylamino)propyl]-3-[4-[3-(dimethylamino)propyl]phenyl] Pyrazol-1-yl]phenyl]methanol] | 3.6 µM | 2 µM | 34 µM |
| 3.2 ± 1 µM | 2.9 ± 0.1 µM | CN(C)CCCc1ccc(-c2nn(-c3ccc(CN(C)C)cc3)cc2CCCN(C)C)cc1 [Compound 25, 3-[4-[1-[4-(Dimethylaminomethyl)phenyl]-4-[3-(dimethylamino)propyl] Pyrazol-3-yl]phenyl]-N,N-dimethyl-propan-1-amine] | 1.2 µM | 1 µM | > 100 µM |
| 2.4 ± 0.7 µM | 1.6 ± 0.1 µM | CN(C)CCCc1ccc(-c2nn(-c3cccc(CN(C)C)c3)cc2CN(C)C)cc1 [Compound 26, 3-[4-[4-(Dimethylaminomethyl)-1-[3-(dimethylaminomethyl)phenyl] Pyrazol-3-yl]phenyl]-N,N-dimethyl-propan-1-amine] | 1.8 µM | 1.3 µM | > 100 µM |
| 3.8 ± 0.4 µM | 2.6 ± 0.1 µM | CN(C)CCCc1ccc(-c2nn(-c3cccc(CN(C)C)c3)cc2CCCN(C)C)cc1 [Compound 27, 3-[4-[1-[3-(Dimethylaminomethyl)phenyl]-4-[3-(dimethylamino)propyl] Pyrazol-3-yl]phenyl]-N,N-dimethyl-propan-1-amine] | 1.6 µM | 1.3 µM | > 100 µM |
| 2.4 ± 0.7 µM | 1.9 ± 0.1 µM | CN(C)CCCc1ccc(-c2nn(-c3ccc(CN4CCN(C)CC4)cc3)cc2CN(C)C)cc1 [Compound 28, 3-[4-[4-(Dimethylaminomethyl)-1-[4-[(4-methylpiperazin-1-yl)methyl] Phenyl]pyrazol-3-yl]phenyl]-N,N-dimethyl-propan-1-amine] | 1.7 µM | 1.2 µM | > 100 µM |
| 5 ± 0.1 µM | 3.4 ± 0.1 µM | CN(C)CCCc1ccc(-c2nn(-c3ccc(CN4CCN(C)CC4)cc3)cc2CCCN(C)C)cc1 [Compound 29, 3-[4-[4-[3-(Dimethylamino)propyl]-1-[4-[(4-methylpiperazin-1-yl) Methyl]phenyl]pyrazol-3-yl]phenyl]-N,N-dimethyl-propan-1-amine] | 2 µM | 1 µM | > 100 µM |
| 3.8 ± 0.1 µM | 2.2 ± 0.3 µM | CN(C)CCCc1ccc(-c2nn(-c3cccc(CN4CCN(C)CC4)c3)cc2CN(C)C)cc1 [Compound 30, 3-[4-[4-(Dimethylaminomethyl)-1-[3-[(4-methylpiperazin-1-yl)methyl] Phenyl]pyrazol-3-yl]phenyl]-N,N-dimethyl-propan-1-amine] | 1.6 µM | 1.2 µM | > 100 µM |
| 5.8 ± 0.6 µM | 4 ± 0.6 µM | CN(C)CCCc1ccc(-c2nn(-c3cccc(CN4CCN(C)CC4)c3)cc2CCCN(C)C)cc1 [Compound 31, 3-[4-[4-[3-(Dimethylamino)propyl]-1-[3-[(4-methylpiperazin-1-yl)methyl] Phenyl]pyrazol-3-yl]phenyl]-N,N-dimethyl-propan-1-amine] | 1.5 µM | 1 µM | > 100 µM |
| > 10 µM | > 10 µM | Cc1cn(-c2cccc(CO)c2)nc1-c1ccc(CN(C)C)cc1 [Compound 48, [3-[3-[4-(Dimethylaminomethyl)phenyl]-4-methyl-pyrazol-1-yl]phenyl] Methanol] | – | – | 24 µM |
| 3.5 ± 0.7 µM | 3.3 ± 1.3 µM | Cc1cn(-c2cccc(CO)c2)nc1-c1cccc(CN(C)CCCN(C)C)c1 [Compound 58, [3-[3-[3-[[3-(Dimethylamino)propyl-methyl-amino]methyl]phenyl]-4-methyl-pyrazol-1-yl]phenyl]methanol] | 7.9 µM | > 10 µM | 20 µM |
| 4.1 ± 2.1 µM | 3.9 ± 0.3 µM | Cc1cn(-c2cccc(CN(C)C)c2)nc1-c1ccc(CN(C)C)cc1 [Compound 61, {[4-(1-{3-[(Dimethylamino)methyl]phenyl}-4-methyl-1H-pyrazol-3-yl)phenyl]methyl}dimethylamine] | 2.7 µM | 2.7 µM | 27 µM |
| 3.2 ± 0.8 µM | 2.4 ± 0.2 µM | Cc1cn(-c2cccc(CN3CCN(C)CC3)c2)nc1-c1ccc(CN(C)C)cc1 [Compound 62, Dimethyl({[4-(4-methyl-1-{3-[(4-methylpiperazin-1-yl)methyl]phenyl}-1H-pyrazol-3-yl)phenyl]methyl})amine] | 3.5 µM | 2 µM | 11 µM |
| 2.7 ± 0.2 µM | 2 ± 0.2 µM | Cc1cn(-c2cccc(CN(C)CCCN(C)C)c2)nc1-c1ccc(CN(C)C)cc1 [Compound 63, [(4-{1-[3-({[3-(Dimethylamino)propyl](methyl)amino}methyl)phenyl]-4-methyl-1H-pyrazol-3-yl}phenyl)methyl]dimethylamine] | 1.5 µM | 1.2 µM | 13 µM |
| 4.1 ± 1.6 µM | 3.8 ± 0.2 µM | Cc1cn(-c2cccc(CN(C)C)c2)nc1-c1cccc(CN(C)C)c1 [Compound 64, 1-[3-[1-[3-(Dimethylaminomethyl)phenyl]-4-methyl-pyrazol-3-yl]phenyl]-N,N-dimethylmethanamine] | 4.9 µM | 3.8 µM | > 100 µM |
